From publication PMC8550792, “Evolution of kinase polypharmacology across HSP90 drug discovery” (Cell Chemical Biology, 2021)

Legend:
Assay in all cases: biochemical
Type in all cases: biochemical
[1] = biological target: T1, 382 unique human kinases (Homo sapiens, UniProt Q96NX5); details: kinase CAMK1g, compound 10 uM; for remaining activity at 10 µM: read-out: % Enzyme Activity (relative to DMSO controls)
T1 construct: purchased Reaction Biology (HotSpot contract assay)

[2] = biological target: T2, 382 unique human kinases (Homo sapiens, UniProt Q9UM73, L1196M); details: ALK (L1196M), 10 uM; for remaining activity at 10 µM: read-out: % Enzyme Activity (relative to DMSO controls)
T2 construct: purchased Reaction Biology (HotSpot contract assay)

[3] = biological target: T3, 382 unique human kinases (Homo sapiens, UniProt Q12866); details: c-MER, 10 uM; for remaining activity at 10 µM: read-out: % Enzyme Activity (relative to DMSO controls)
T3 construct: purchased Reaction Biology (HotSpot contract assay)
T3 sequence (Q12866 21-999): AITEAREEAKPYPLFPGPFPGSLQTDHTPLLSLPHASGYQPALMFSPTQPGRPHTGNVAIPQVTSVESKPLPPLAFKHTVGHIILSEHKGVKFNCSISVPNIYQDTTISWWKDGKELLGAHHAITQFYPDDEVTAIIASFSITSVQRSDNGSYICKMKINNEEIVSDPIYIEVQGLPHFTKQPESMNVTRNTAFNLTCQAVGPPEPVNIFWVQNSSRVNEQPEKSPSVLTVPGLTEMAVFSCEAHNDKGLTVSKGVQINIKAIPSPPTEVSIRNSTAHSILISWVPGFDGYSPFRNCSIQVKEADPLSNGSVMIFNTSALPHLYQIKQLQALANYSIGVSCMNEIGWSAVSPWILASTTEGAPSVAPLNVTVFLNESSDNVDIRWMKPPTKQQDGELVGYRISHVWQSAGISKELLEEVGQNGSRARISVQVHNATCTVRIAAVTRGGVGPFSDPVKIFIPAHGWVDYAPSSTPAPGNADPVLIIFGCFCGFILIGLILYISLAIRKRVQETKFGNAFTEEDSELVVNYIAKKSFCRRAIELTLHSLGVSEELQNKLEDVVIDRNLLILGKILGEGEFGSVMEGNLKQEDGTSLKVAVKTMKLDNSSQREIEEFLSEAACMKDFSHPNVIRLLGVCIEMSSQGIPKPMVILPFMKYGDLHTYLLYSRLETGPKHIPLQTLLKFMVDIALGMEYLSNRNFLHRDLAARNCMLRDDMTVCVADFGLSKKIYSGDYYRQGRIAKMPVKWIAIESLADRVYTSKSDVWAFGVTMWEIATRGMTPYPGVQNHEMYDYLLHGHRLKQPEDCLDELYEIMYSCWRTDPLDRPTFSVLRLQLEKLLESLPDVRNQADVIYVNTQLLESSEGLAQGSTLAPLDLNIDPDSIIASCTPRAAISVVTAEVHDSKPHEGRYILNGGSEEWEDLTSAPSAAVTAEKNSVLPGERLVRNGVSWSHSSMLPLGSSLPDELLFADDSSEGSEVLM

[4] = biological target: T4, 382 unique human kinases (Homo sapiens, UniProt Q13233); details: kinase MEKK1, compound 10 uM; for remaining activity at 10 µM: read-out: % Enzyme Activity (relative to DMSO controls)
T4 construct: purchased Reaction Biology (HotSpot contract assay)

[5] = biological target: T5, 382 unique human kinases (Homo sapiens, UniProt P35626); details: GRK3, 10 uM; for remaining activity at 10 µM: read-out: % Enzyme Activity (relative to DMSO controls)
T5 construct: purchased Reaction Biology (HotSpot contract assay)
T5 sequence (P35626 1-688): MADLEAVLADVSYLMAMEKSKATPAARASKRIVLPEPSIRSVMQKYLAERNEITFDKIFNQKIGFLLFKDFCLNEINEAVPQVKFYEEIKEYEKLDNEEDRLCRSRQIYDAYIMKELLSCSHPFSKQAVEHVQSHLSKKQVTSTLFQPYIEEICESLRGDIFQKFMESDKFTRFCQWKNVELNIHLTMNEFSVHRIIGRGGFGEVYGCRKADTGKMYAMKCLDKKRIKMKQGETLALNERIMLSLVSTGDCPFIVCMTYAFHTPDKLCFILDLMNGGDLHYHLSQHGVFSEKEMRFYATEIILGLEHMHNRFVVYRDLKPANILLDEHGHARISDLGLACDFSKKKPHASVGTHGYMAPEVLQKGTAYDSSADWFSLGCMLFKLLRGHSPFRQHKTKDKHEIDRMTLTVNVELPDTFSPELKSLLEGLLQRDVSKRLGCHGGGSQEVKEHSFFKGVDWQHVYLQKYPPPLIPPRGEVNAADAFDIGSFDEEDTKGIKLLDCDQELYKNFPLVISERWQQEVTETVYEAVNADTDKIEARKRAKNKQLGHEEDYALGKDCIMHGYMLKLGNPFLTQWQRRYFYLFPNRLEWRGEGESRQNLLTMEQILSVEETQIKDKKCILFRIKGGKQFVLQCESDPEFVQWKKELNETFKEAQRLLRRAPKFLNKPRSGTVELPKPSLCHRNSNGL

[6] = biological target: T6, 382 unique human kinases (Homo sapiens, UniProt P23458); details: JAK1, 10 uM; for remaining activity at 10 µM: read-out: % Enzyme Activity (relative to DMSO controls)
T6 construct: purchased Reaction Biology (HotSpot contract assay)

[7] = biological target: T7, 382 unique human kinases (Homo sapiens, UniProt P51955); details: NEK2, [ATP] 10 µM, compound 10 uM; for remaining activity at 10 µM: read-out: % Enzyme Activity (relative to DMSO controls)
T7 construct: purchased Reaction Biology (HotSpot contract assay)
T7 sequence (P51955 1-445): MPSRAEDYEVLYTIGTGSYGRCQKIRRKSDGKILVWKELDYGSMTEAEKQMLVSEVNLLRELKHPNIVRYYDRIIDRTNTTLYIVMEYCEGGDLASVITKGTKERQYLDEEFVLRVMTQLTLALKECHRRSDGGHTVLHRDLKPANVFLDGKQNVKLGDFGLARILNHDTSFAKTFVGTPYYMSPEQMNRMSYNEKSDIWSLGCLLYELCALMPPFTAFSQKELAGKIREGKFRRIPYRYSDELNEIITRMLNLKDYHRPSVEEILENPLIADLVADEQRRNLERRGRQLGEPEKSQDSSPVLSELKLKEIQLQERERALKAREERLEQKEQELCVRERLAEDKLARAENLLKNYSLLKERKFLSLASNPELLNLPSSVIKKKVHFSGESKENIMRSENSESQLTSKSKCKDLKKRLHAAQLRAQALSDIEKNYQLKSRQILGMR

T1 sequence (Q96NX5 whole entry): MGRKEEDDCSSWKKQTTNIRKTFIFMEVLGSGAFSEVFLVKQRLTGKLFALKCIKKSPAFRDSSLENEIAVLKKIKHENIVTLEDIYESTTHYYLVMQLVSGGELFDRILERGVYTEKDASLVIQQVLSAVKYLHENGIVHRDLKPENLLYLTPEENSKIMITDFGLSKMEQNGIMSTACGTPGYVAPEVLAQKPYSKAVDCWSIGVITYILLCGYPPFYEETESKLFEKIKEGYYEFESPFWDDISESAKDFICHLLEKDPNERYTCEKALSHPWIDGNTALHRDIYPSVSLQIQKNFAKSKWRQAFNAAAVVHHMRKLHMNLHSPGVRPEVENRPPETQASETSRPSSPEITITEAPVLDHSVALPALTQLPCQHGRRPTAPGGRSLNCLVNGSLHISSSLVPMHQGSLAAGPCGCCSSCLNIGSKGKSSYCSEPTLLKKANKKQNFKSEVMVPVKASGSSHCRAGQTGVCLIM
T2 sequence (Q9UM73 19-1620 L1196M): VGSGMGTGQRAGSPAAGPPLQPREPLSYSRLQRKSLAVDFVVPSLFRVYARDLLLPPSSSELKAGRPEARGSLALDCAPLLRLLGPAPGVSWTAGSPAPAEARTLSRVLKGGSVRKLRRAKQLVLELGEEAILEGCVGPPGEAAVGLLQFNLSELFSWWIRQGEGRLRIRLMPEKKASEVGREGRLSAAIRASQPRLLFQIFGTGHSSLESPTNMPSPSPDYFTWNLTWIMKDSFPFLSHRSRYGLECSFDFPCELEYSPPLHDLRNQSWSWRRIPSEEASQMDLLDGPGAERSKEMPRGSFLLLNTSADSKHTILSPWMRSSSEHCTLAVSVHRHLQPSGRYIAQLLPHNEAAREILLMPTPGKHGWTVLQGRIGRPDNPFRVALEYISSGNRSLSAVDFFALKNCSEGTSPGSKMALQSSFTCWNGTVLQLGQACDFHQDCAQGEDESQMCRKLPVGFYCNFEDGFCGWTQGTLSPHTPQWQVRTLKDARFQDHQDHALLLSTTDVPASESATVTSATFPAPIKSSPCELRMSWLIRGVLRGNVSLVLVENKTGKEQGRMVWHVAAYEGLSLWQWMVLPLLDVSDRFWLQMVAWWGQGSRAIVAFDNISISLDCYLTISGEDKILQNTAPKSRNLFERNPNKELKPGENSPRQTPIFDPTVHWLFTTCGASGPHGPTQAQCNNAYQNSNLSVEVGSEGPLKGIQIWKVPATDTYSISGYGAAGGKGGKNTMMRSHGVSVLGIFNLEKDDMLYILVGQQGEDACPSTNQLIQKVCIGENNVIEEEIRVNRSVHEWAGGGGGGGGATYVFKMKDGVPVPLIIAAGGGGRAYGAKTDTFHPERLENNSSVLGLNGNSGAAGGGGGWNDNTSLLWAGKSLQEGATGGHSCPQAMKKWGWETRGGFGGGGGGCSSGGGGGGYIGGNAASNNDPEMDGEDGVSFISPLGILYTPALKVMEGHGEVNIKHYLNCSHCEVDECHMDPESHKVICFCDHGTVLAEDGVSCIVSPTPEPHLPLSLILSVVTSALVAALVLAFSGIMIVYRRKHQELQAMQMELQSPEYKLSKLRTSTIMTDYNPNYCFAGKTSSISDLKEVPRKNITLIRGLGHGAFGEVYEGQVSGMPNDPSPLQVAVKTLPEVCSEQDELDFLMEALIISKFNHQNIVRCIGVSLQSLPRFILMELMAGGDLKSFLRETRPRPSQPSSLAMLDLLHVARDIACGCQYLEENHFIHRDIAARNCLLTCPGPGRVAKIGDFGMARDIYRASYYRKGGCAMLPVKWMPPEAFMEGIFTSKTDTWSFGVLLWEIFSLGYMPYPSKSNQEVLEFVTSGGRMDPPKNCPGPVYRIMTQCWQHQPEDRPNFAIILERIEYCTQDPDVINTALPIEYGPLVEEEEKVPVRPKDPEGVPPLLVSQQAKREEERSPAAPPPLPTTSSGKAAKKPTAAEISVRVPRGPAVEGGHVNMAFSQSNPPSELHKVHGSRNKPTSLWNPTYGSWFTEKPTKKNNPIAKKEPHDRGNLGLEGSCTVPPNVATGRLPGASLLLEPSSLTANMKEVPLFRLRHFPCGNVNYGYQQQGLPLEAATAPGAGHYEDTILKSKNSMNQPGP
T6 sequence (P23458 whole entry): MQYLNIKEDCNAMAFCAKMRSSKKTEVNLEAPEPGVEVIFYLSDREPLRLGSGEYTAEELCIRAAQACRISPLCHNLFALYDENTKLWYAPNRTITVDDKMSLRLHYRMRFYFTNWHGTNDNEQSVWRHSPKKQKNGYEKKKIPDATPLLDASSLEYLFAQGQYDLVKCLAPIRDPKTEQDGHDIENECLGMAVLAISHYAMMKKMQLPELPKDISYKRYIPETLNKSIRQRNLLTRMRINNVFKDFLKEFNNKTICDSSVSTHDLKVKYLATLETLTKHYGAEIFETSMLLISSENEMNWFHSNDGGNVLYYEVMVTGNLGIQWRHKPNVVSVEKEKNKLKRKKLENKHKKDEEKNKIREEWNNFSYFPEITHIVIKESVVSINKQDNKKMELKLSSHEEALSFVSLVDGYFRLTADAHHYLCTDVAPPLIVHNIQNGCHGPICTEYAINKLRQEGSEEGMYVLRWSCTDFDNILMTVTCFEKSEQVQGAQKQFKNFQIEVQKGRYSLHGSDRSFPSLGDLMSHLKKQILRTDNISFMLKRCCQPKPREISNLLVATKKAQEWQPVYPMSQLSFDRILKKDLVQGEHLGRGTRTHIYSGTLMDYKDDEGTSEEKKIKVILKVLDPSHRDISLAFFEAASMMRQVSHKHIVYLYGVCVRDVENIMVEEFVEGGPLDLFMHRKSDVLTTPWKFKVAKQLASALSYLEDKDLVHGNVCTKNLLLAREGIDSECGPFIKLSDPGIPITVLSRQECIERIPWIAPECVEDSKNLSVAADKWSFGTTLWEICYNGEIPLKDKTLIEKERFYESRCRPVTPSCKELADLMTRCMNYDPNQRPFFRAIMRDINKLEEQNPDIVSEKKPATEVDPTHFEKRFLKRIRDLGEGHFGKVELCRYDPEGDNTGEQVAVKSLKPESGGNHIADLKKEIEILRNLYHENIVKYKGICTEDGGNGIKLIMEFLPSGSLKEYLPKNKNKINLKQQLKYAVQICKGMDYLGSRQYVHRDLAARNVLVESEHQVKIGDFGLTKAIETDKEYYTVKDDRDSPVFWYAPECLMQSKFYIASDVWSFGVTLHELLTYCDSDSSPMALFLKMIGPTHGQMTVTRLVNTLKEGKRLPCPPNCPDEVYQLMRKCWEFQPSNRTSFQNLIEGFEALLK
T4 sequence (Q13233 whole entry): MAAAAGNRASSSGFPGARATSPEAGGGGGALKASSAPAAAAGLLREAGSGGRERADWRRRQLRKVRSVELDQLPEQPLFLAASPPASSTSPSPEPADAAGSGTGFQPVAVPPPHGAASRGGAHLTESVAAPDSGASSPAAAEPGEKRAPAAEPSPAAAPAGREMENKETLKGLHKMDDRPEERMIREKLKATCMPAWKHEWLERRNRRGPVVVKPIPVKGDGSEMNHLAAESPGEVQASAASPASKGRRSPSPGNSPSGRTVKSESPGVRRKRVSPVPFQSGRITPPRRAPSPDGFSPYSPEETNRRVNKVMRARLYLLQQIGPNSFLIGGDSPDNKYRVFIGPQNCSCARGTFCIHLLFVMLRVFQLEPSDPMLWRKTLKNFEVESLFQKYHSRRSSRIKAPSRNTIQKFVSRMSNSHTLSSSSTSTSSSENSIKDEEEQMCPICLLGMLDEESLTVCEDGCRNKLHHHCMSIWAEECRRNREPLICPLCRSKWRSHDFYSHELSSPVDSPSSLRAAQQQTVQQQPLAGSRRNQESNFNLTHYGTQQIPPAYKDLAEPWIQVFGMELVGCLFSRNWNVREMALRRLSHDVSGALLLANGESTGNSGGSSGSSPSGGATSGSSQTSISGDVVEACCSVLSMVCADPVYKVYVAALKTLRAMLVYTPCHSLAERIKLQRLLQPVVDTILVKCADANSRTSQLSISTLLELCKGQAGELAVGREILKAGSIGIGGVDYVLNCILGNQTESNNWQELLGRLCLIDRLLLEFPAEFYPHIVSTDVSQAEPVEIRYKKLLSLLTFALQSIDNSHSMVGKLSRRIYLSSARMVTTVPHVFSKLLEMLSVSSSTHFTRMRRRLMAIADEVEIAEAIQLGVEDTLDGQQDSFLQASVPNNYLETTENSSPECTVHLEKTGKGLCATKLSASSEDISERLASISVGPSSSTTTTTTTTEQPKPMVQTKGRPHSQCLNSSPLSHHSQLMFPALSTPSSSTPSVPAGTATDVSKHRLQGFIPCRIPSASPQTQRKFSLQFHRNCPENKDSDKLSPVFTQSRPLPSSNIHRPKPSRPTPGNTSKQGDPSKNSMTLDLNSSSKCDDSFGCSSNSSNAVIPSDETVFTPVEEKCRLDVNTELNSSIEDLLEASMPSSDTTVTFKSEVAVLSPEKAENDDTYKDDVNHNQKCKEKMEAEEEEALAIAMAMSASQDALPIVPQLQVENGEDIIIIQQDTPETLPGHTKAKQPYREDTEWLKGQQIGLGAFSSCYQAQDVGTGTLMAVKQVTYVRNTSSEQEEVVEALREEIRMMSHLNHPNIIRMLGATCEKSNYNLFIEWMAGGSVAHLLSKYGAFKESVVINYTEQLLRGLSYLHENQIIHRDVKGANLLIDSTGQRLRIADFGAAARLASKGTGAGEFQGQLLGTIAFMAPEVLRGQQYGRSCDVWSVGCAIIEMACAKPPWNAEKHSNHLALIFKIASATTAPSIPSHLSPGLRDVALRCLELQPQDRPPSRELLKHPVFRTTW

Row | Structure (SMILES) | remaining activity at 10 µM [1] | remaining activity at 10 µM [2] | remaining activity at 10 µM [3] | remaining activity at 10 µM [4] | remaining activity at 10 µM [5] | remaining activity at 10 µM [6] | remaining activity at 10 µM [7] | % Enzyme Activity (relative to DMSO controls) [1] | % Enzyme Activity (relative to DMSO controls) [2] | % Enzyme Activity (relative to DMSO controls) [3] | % Enzyme Activity (relative to DMSO controls) [4] | % Enzyme Activity (relative to DMSO controls) [5] | % Enzyme Activity (relative to DMSO controls) [6] | % Enzyme Activity (relative to DMSO controls) [7]
1 | CC(C)c1cc(-c2n[nH]c(=O)n2-c2ccc3c(ccn3C)c2)c(O)cc1O [Ganetespib (STA9090)] | 86.8% | 70.2% | 63.5% | 98.3% |  |  |  |  |  |  |  |  |  | 
2 | CC(C)c1cc(-c2n[nH]c(=O)n2-c2ccc3c(ccn3C)c2)c(O)cc1O [Ganetespib] |  |  |  |  | 109% | 95% | 51.6% |  |  |  |  |  |  | 
3 | CCNC(=O)c1noc(-c2cc(C(C)C)c(O)cc2O)c1-c1ccc(CN2CCOCC2)cc1 [Luminespib (AUY-922)] | 97.8% | 100% | 97.7% | 85.5% |  |  |  | 93.84% | 98.66% | 93.85% | 83.59% |  |  | 
4 | CCNC(=O)c1noc(-c2cc(C(C)C)c(O)cc2O)c1-c1ccc(CN2CCOCC2)cc1 [Luminespib] |  |  |  |  | 97.9% | 96.1% | 103% |  |  |  |  | 96.02% | 94.10% | 101.57%
